Measurements reported in PubChem BioAssay AID256 (DTP/NCI, 2004).
Where “and” joins values, the source holds several entries; their conditions need not be identical. Equal values may be shown once. Toxic doses and inconclusive results are not listed. The calls were made as follows: active = survival T/C of 150% or more; inactive = T/C below 125% in these data.

System: CD2F1 mice, L1210 leukemia ip, survival T/C
Assay: NCI In Vivo Anticancer Drug Screen. Data for tumor model L1210 Leukemia (intraperitoneal) in CD2F1 (CDF1) mice
Conditions: higher = longer survival
Description: The antitumor activity of compounds was measured in mice bearing transplantable tumors. Survival or tumor size were measured and the results are expressed as the measurement made in the treated group (T) divided by the measurement made in the vehicle treated control group (C). The tumor model used in this assay is L1210 Leukemia (intraperitoneal) in CD2F1 (CDF1) mice

[1] = endpoint: mean survival time, dose: 25.0 mg/kg/injection, schedule: Q01DX005 (ip), vehicle: water
[2] = endpoint: mean survival time, dose: 50.0 mg/kg/injection, schedule: Q01DX005 (ip), vehicle: water
[3] = endpoint: mean survival time, dose: 100.0 mg/kg/injection, schedule: Q01DX005 (ip), vehicle: water
[4] = endpoint: mean survival time, dose: 100.0 mg/kg/injection, schedule: Q01DX009 (ip), vehicle: saline with Tween-80
[5] = endpoint: mean survival time, dose: 200.0 mg/kg/injection, schedule: Q01DX009 (ip), vehicle: saline with Tween-80
[6] = endpoint: mean survival time, dose: 400.0 mg/kg/injection, schedule: Q01DX009 (ip), vehicle: saline with Tween-80
[7] = endpoint: mean survival time, dose: 100.0 mg/kg/injection, schedule: Q04DX003 (ip), vehicle: saline with Tween-80
[8] = endpoint: mean survival time, dose: 200.0 mg/kg/injection, schedule: Q04DX003 (ip), vehicle: saline with Tween-80
[9] = endpoint: mean survival time, dose: 400.0 mg/kg/injection, schedule: Q04DX003 (ip), vehicle: saline with Tween-80
[10] = endpoint: mean survival time, dose: 100.0 mg/kg/injection, schedule: Q04DX003 (ip), vehicle: saline
[11] = endpoint: mean survival time, dose: 200.0 mg/kg/injection, schedule: Q04DX003 (ip), vehicle: saline
[12] = endpoint: mean survival time, dose: 400.0 mg/kg/injection, schedule: Q04DX003 (ip), vehicle: saline

Measured: T/C

CC1CN(Cc2ccccc2O)CC(C)N1 (configuration not stated)
inactive: [1] 96 % of control | [2] 94 % of control | [3] 94 % of control

Fc1ccc2c(c1)CC(CBr)O2 (configuration not stated)
inactive: [4] 100 % of control | [5] 105 % of control | [6] 96 % of control

C=CCCCCCCCCC(=O)NCC(C)C
inactive: [4] 104 % of control | [7] 91 % of control | [5] 104 % of control | [8] 102 % of control | [6] 98 % of control | [9] 100 % of control

CCOC(=O)C1(C(=O)OCC)CCC(O)N1C(=O)c1ccccc1[N+](=O)[O-] (configuration not stated)
inactive: endpoint: mean survival time, dose: 100.0 mg/kg/injection, schedule: Q01DX001 (ip), vehicle: Klucel (hydroxypropylcellulose) (HPC) 100 % of control | endpoint: mean survival time, dose: 200.0 mg/kg/injection, schedule: Q01DX001 (ip), vehicle: Klucel (hydroxypropylcellulose) (HPC) 96 % of control | endpoint: mean survival time, dose: 400.0 mg/kg/injection, schedule: Q01DX001 (ip), vehicle: Klucel (hydroxypropylcellulose) (HPC) 92 % of control

CC(=O)OC(CC(=O)CC(OC(C)=O)(C(F)(F)F)C(F)(F)F)(C(F)(F)F)C(F)(F)F
inactive: endpoint: mean survival time, dose: 100.0 mg/kg/injection, schedule: Q01DX009 (ip), vehicle: saline 100 % of control | endpoint: mean survival time, dose: 200.0 mg/kg/injection, schedule: Q01DX009 (ip), vehicle: saline 97 % of control | endpoint: mean survival time, dose: 400.0 mg/kg/injection, schedule: Q01DX009 (ip), vehicle: saline 103 % of control

Cn1cc(C2NC(=O)c3ccccc3N2)c2ccccc21 (configuration not stated)
inactive: endpoint: median survival time, dose: 100.0 mg/kg/injection, schedule: Q01DX009 (ip), vehicle: Klucel (hydroxypropylcellulose) (HPC) 119 % of control

O=C1C(=O)c2ccccc2C(O)=C1[N+](=O)[O-]
inactive: [4] 96 % of control | [7] 100 % of control | [8] 103 % of control | [9] 112 % of control

CCNC(=S)Nc1ccc(Cl)cc1
inactive: endpoint: mean survival time, dose: 25.0 mg/kg/injection, schedule: Q04DX003 (ip), vehicle: saline with Tween-80 104 % of control | endpoint: mean survival time, dose: 50.0 mg/kg/injection, schedule: Q04DX003 (ip), vehicle: saline with Tween-80 101 % of control | [7] 91 % of control

CCCCCCCCCCCCCCCCC(C)(O)C#CC(C)(O)CCCCCCCCCCCCCCCC (configuration not stated)
inactive: endpoint: mean survival time, dose: 100.0 mg/kg/injection, schedule: Q01DX005 (ip), vehicle: other 97 % of control | endpoint: mean survival time, dose: 200.0 mg/kg/injection, schedule: Q01DX005 (ip), vehicle: other 97 % of control | endpoint: mean survival time, dose: 400.0 mg/kg/injection, schedule: Q01DX005 (ip), vehicle: other 101 % of control

Cc1cccc(C)c1NC(=O)c1ccccc1C(=O)O
inactive: [4] 92 % of control | [7] 98 % of control | [5] 92 % of control | [8] 98 % of control | [6] 97 % of control | [9] 96 % of control

N#CSCCSC#N
inactive: endpoint: mean survival time, dose: 2.5 mg/kg/injection, schedule: Q04DX003 (ip), vehicle: Klucel (hydroxypropylcellulose) (HPC) 102 % of control | endpoint: mean survival time, dose: 5.0 mg/kg/injection, schedule: Q04DX003 (ip), vehicle: Klucel (hydroxypropylcellulose) (HPC) 120 % of control | endpoint: mean survival time, dose: 10.0 mg/kg/injection, schedule: Q04DX003 (ip), vehicle: Klucel (hydroxypropylcellulose) (HPC) 105 % of control

N#Cc1cn(C2OC(CO)C(O)C2O)c2ncnc(N)c12 (configuration not stated)
inactive: endpoint: mean survival time, dose: 0.06 mg/kg/injection, schedule: Q01DX009 (ip), vehicle: saline 106 % of control | endpoint: mean survival time, dose: 0.13 mg/kg/injection, schedule: Q01DX009 (ip), vehicle: saline 110 % of control | endpoint: mean survival time, dose: 0.5 mg/kg/injection, schedule: Q01DX009 (ip), vehicle: saline 111 % of control | endpoint: mean survival time, dose: 1.0 mg/kg/injection, schedule: Q01DX009 (ip), vehicle: saline 95 % of control | endpoint: median survival time, dose: 0.1 mg/kg/injection, schedule: Q06HX024 (ip), vehicle: saline 100 % of control | endpoint: median survival time, dose: 0.2 mg/kg/injection, schedule: Q06HX024 (ip), vehicle: saline 102 % of control | endpoint: median survival time, dose: 0.4 mg/kg/injection, schedule: Q06HX024 (ip), vehicle: saline 109 % of control

CCCNC(=O)Oc1ccc(C(=O)OCC)cc1
inactive: [10] 97 % of control | [11] 101 % of control | [12] 106 % of control

O=c1[nH]c(=O)n(C2OC(COP(=O)(O)O)C(O)C2O)nc1SCc1ccccc1 (configuration not stated)
inactive: endpoint: median survival time, dose: 5.0 mg/kg/injection, schedule: Q01DX005 (ip), vehicle: distilled water + Tween-80 109 % of control | endpoint: median survival time, dose: 10.0 mg/kg/injection, schedule: Q01DX005 (ip), vehicle: distilled water + Tween-80 98 % of control | endpoint: median survival time, dose: 20.0 mg/kg/injection, schedule: Q01DX005 (ip), vehicle: distilled water + Tween-80 96 % of control | endpoint: median survival time, dose: 40.0 mg/kg/injection, schedule: Q01DX005 (ip), vehicle: distilled water + Tween-80 105 % of control | endpoint: median survival time, dose: 80.0 mg/kg/injection, schedule: Q01DX005 (ip), vehicle: distilled water + Tween-80 117 % of control

C(=C\c1cc[n+](CCc2ccccc2)cc1)/c1ccccc1
inactive: endpoint: mean survival time, dose: 6.25 mg/kg/injection, schedule: Q01DX009 (ip), vehicle: saline with Tween-80 104 % of control | endpoint: mean survival time, dose: 12.5 mg/kg/injection, schedule: Q01DX009 (ip), vehicle: saline with Tween-80 98 % of control | endpoint: mean survival time, dose: 25.0 mg/kg/injection, schedule: Q01DX009 (ip), vehicle: saline with Tween-80 108 % of control

C[CH2][Sn]([Cl])([Cl])[Cl].Oc1ccccc1C=NCCN=Cc1ccccc1O
inactive: endpoint: mean survival time, dose: 50.0 mg/kg/injection, schedule: Q01DX009 (ip), vehicle: saline with Tween-80 100 % of control | [4] 95 % of control | [7] 98 % of control | [5] 97 % of control | [8] 89 % of control

Nc1nc(SCc2ccc([N+](=O)[O-])cc2)c2[nH]cnc2n1
inactive: [4] 94 % of control | [7] 97 % of control | [5] 101 % of control | [8] 97 % of control | [6] 95 % of control | [9] 96 % of control

Cn1cnc([N+](=O)[O-])c1Sc1cn(C2CC(O)C(CO)O2)c(=O)[nH]c1=O (configuration not stated)
inactive: endpoint: mean survival time, dose: 12.5 mg/kg/injection, schedule: Q01DX005 (ip), vehicle: water 102 % of control | [1] 102 % of control | [2] 104 % of control | [3] 98 % of control | endpoint: mean survival time, dose: 200.0 mg/kg/injection, schedule: Q01DX005 (ip), vehicle: water 106 % of control

CC1(C)C(C2CCCC[N+]2=O)CS1(=O)=O (configuration not stated)
inactive: endpoint: mean survival time, dose: 100.0 mg/kg/injection, schedule: Q01DX001 (ip), vehicle: saline 100 % of control | [10] 101 % of control | endpoint: mean survival time, dose: 200.0 mg/kg/injection, schedule: Q01DX001 (ip), vehicle: saline 100 % of control | [11] 103 % of control | endpoint: mean survival time, dose: 400.0 mg/kg/injection, schedule: Q01DX001 (ip), vehicle: saline 96 % of control | [12] 105 % of control

CN(C)N=Nc1ccc(SC#N)cc1C(N)=O
inactive: endpoint: mean survival time, dose: 18.8 mg/kg/injection, schedule: Q01DX009 (ip), vehicle: Klucel (hydroxypropylcellulose) (HPC) 93 % of control and 103 % of control | endpoint: mean survival time, dose: 37.5 mg/kg/injection, schedule: Q01DX009 (ip), vehicle: Klucel (hydroxypropylcellulose) (HPC) 97 % of control and 106 % of control | endpoint: mean survival time, dose: 75.0 mg/kg/injection, schedule: Q01DX009 (ip), vehicle: Klucel (hydroxypropylcellulose) (HPC) 107 % of control and 108 % of control | endpoint: mean survival time, dose: 150.0 mg/kg/injection, schedule: Q01DX009 (ip), vehicle: Klucel (hydroxypropylcellulose) (HPC) 88 % of control and 110 % of control

COC1OC2COc3ccccc3OC2C(N)C1Nc1ccccc1 (configuration not stated)
inactive: endpoint: mean survival time, dose: 75.0 mg/kg/injection, schedule: Q01DX001 (ip), vehicle: saline with Tween-80 101 % of control | endpoint: mean survival time, dose: 150.0 mg/kg/injection, schedule: Q01DX001 (ip), vehicle: saline with Tween-80 101 % of control | endpoint: mean survival time, dose: 300.0 mg/kg/injection, schedule: Q01DX001 (ip), vehicle: saline with Tween-80 100 % of control

CCOC(=O)/C=C/CP(=O)(OCC)OCC
inactive: endpoint: mean survival time, dose: 50.0 mg/kg/injection, schedule: Q01DX001 (ip), vehicle: carboxymethylcellulose (CMC) 102 % of control

Nc1ccc2oc(=O)c(C(=O)O)cc2c1
inactive: endpoint: mean survival time, dose: 100.0 mg/kg/injection, schedule: Q01DX001 (ip), vehicle: saline with Tween-80 93 % of control | endpoint: mean survival time, dose: 200.0 mg/kg/injection, schedule: Q01DX001 (ip), vehicle: saline with Tween-80 89 % of control

O=S(=O)(Nc1ccc2c3c(cccc13)CC2)c1ccccc1
inactive: [7] 96 % of control | [8] 96 % of control | [9] 98 % of control

CCn1c(=O)c2[nH]c(Cl)nc2n(CC)c1=O
inactive: endpoint: mean survival time, dose: 25.0 mg/kg/injection, schedule: Q04DX003 (ip), vehicle: Klucel (hydroxypropylcellulose) (HPC) 102 % of control | endpoint: mean survival time, dose: 50.0 mg/kg/injection, schedule: Q04DX003 (ip), vehicle: Klucel (hydroxypropylcellulose) (HPC) 105 % of control | endpoint: mean survival time, dose: 100.0 mg/kg/injection, schedule: Q04DX003 (ip), vehicle: Klucel (hydroxypropylcellulose) (HPC) 107 % of control

CC1Cc2ccccc2C1=O (configuration not stated)
inactive: [4] 90 % of control | [5] 91 % of control | [6] 94 % of control
